Assay results published in patent US8865909B2, “Anti-biofilm agents” (Yissum Research Development Company of the Hebrew …, priority 2008, dated 2014).

What was measured:
[1] = system: Candida albicans (ATCC 90028); test: C. albicans biofilm formation, XTT metabolic reduction assay; format: cell-based
Description: Candida albicans (ATCC 90028) was used to study the anti-biofilm formation activity of exemplary ABF agents according to embodiments of the present invention.
The C. albicans strain was propagated in yeast peptone dextrose (YPD) medium (1% wt/vol yeast extract, 2% wt/vol peptone, 2% wt/vol dextrose). Batches of medium (30 ml in 125 ml Erlenmeyer flask) were inoculated with material from Sabouraud dextrose agar (SDA) plates containing freshly grown C. albicans and incubated overnight in an orbital shaker (200 rpm) at 30° C. under aerobic conditions. C. albicans grew in the budding-yeast phase under these conditions. Cells were harvested and washed twice in sterile phosphate-buffered saline (PBS) (Oxoid Ltd, Basingstoke, Hampshire, UK). Thereafter the cells were resuspended in RPMI 1640 supplemented with L-glutamine and buffered with morpholinepropanesulfonic acid (MOPS) (Sigma Chemical Co., St. Louis, Mo.) and adjusted to the desired density after counting with a hematocytometer.
Biofilms of C. albicans were formed in the wells on commercially available presterilized, polystyrene, flat-bottomed, 96-well microtiter plates (Nunc—Nunclon™ Surface, Roskilde, Denmark). Biofilms were formed by pipetting 100 μl of the standardized cell suspensions (5×10^6 cells/ml) into selected wells of the microtiter plate and incubating the plate for 72 hours at 37° C. After 24 hours and 48 hours of the biofilm formation, the medium was replaced by fresh RPMI 1640 medium.
Working concentrations of farnesol (300 μM; 66 μg/ml) and the exemplary ABF agents TZD10 and TZD11 (200 μg/ml) were prepared in RPMI 1640 by using the stock solutions. […]
The effect of the compounds on biofilm formation was measured by using a metabolic reduction assay (XTT kit). […] The colorimetric change (a reflection of the metabolic activity of the biofilm) was measured with a microtiter plate reader at 492 nm. The anti-biofilm formation activity effect of the tested agents was expressed as the percentage of the optical density (OD) of the treated wells compared to that of control (untreated) wells for the XTT assays. […]

[2] = system: Candida albicans (ATCC 90028) preformed biofilm; test: C. albicans preformed (mature) biofilm, XTT reduction assay; format: cell-based; conditions: for activity on the preformed biofilm: 24 hours on 48-hour biofilm
Description: The effect of the compounds on biofilm formation was measured by using a metabolic reduction assay (XTT kit). Briefly, 100 μl of the XTT reaction solution (Biological Industries, Israel Beit Haemek Ltd.) was added to each well, and microtiter plate was then incubated in the dark for 2 hours at 37° C. The colorimetric change (a reflection of the metabolic activity of the biofilm) was measured with a microtiter plate reader at 492 nm. The anti-biofilm formation activity effect of the tested agents was expressed as the percentage of the optical density (OD) of the treated wells compared to that of control (untreated) wells for the XTT assays. Light microscopic examination of biofilms formed in microtiter plates was performed in parallel by using an inverted microscope.
C. albicans biofilm was formed during 48 hours at 37° C. on the surfaces of microtiter plates by using the protocol described hereinabove, and the tested ABF agents were then added to the preformed biofilm. Following biofilm formation the spent medium and the nonadherent cells were removed by washing the biofilms three times in sterile PBS. The tested compounds, the ABF agent at 25, 50, 100 μg/ml, fluconazole at 31.25, 62.5, 125 μg/ml, in fresh RPMI 1640—farnesol at 150 μM (33 μg/ml), were added to selected wells of the microtiter plates. In addition, the effect of combination of farnesol (33 μg/ml) with fluconazole (31.25 μg/ml) and the ABF agent (25 or 50 μg/ml) with fluconazole (31.25 μg/ml) was examined on preformed biofilms. The plates were then incubated for 24 hours at 37° C. The effect of the compounds on pre-formed biofilms was then estimated by using the XTT reduction assay as described hereinabove.

SMILES	reduction in the metabolic activity of the yeast cells (XTT) ([1]; 33 μg/ml, 72 hours) [%]	additive effect of combination with fluconazole compared to farnesol alone ([1]; removed after 48 hours, fluconazole 31.25 μg/ml for another 24 hours)	activity on the preformed biofilm [2]	additive anti-biofilm effect of adding fluconazole ([2]; farnesol 33 μg/ml + fluconazole 31.25 μg/ml, pre-formed biofilm)	reduction in the metabolic activity (XTT), biofilm formation ([1]; 31-125 μg/ml, 72 hours)
CC(C)=CCC/C(C)=C/CC/C(C)=C/CO [farnesol]	43	did not show any additive effect	no activity	no additive anti-biofilm effect	
OC(Cn1cncn1)(Cn1cncn1)c1ccc(F)cc1F [fluconazole]			no activity		up to 77%
